ChEMBL document CHEMBL4665836, “Overcoming β-Lactam resistance in Pseudomonas aeruginosa using non-canonical tobramycin-based antibiotic adjuvants” (2020)

Legend:
Assay type in all cases: functional
Pseudomonas aeruginosa [1] = assay: Potentiation of imipenem-induced antibacterial activity against carbapenem-resistant Pseudomonas aeruginosa 88949 clinical isolate assessed as imipenem MIC at 8 uM by checkerboard assay (reference value: 64 ug/ml)
Pseudomonas aeruginosa [2] = assay: Potentiation of imipenem-induced antibacterial activity against carbapenem-resistant Pseudomonas aeruginosa 107092 clinical isolate assessed as imipenem MIC at 8 uM by checkerboard assay (reference value: 64 ug/ml)
Pseudomonas aeruginosa [3] = assay: Potentiation of ceftazidime-induced antibacterial activity against carbapenem-resistant Pseudomonas aeruginosa 107092 clinical isolate assessed as ceftazidime MIC at 8 uM by checkerboard assay (reference value: 128 ug/ml)
Pseudomonas aeruginosa [4] = assay: Potentiation of imipenem-induced antibacterial activity against carbapenem and colistin-resistant Pseudomonas aeruginosa 101243 clinical isolate assessed as imipenem MIC at 8 uM by checkerboard assay (reference value: 8 ug/ml)
Pseudomonas aeruginosa [5] = assay: Potentiation of ceftazidime-induced antibacterial activity against wild type Pseudomonas aeruginosa PAO1 assessed as ceftazidime MIC at 8 uM by checkerboard assay (reference value: 2 ug/ml)
Pseudomonas aeruginosa [6] = assay: Potentiation of aztreonam-induced antibacterial activity against wild type Pseudomonas aeruginosa PAO1 assessed as fold reduction in aztreonam MIC at 8 uM
Pseudomonas aeruginosa [7] = assay: Potentiation of aztreonam-induced antibacterial activity against carbapenem-resistant Pseudomonas aeruginosa 260-97103 clinical isolate assessed as aztreonam MIC at 8 uM by checkerboard assay (reference value: 64 ug/ml)
Pseudomonas aeruginosa [8] = assay: Antibacterial activity against Pseudomonas aeruginosa PAO750 harboring mexAB-oprM/mexCD-oprJ/mexEF-oprN/mexJK/mexXY/opmH efflux deficient mutant
Pseudomonas aeruginosa [9] = assay: Potentiation of imipenem-induced antibacterial activity against carbapenem-resistant Pseudomonas aeruginosa 100036 clinical isolate assessed as imipenem MIC at 8 uM by checkerboard assay (reference value: 8 ug/ml)
Pseudomonas aeruginosa [10] = assay: Potentiation of ceftazidime-induced antibacterial activity against carbapenem-resistant Pseudomonas aeruginosa 109084 clinical isolate assessed as ceftazidime MIC at 8 uM by checkerboard assay (reference value: 64 ug/ml)
Pseudomonas aeruginosa [11] = assay: Potentiation of imipenem-induced antibacterial activity against carbapenem-resistant Pseudomonas aeruginosa PAO750 harboring mexAB-oprM/mexCD-oprJ/mexEF-oprN/mexJK/mexXY/opmH efflux deficient mutant assessed as imipenem MIC at 8 uM by checkerboard assay (reference value: 4 ug/ml)
Pseudomonas aeruginosa [12] = assay: Potentiation of imipenem-induced antibacterial activity against carbapenem-resistant Pseudomonas aeruginosa 86052 clinical isolate assessed as fold reduction in imipenem MIC at 8 uM in presence of beta-lactamase inhibitor, rele-bactam
Pseudomonas aeruginosa [13] = assay: Potentiation of ceftazidime-induced antibacterial activity against carbapenem-resistant Pseudomonas aeruginosa 86052 clinical isolate assessed as fold reduction in ceftazidime MIC at 8 uM in presence of beta-lactamase inhibitor, avi-bactam
Pseudomonas aeruginosa [14] = assay: Potentiation of aztreonam-induced antibacterial activity against wild type Pseudomonas aeruginosa PAO1 assessed as aztreonam MIC at 8 uM by checkerboard assay (reference value: 4 ug/ml)
Pseudomonas aeruginosa [15] = assay: Potentiation of imipenem-induced antibacterial activity against carbapenem and colistin-resistant Pseudomonas aeruginosa 114228 clinical isolate assessed as imipenem MIC at 8 uM by checkerboard assay (reference value: 8 ug/ml)
Pseudomonas aeruginosa [16] = assay: Potentiation of imipenem-induced antibacterial activity against carbapenem-resistant Pseudomonas aeruginosa 259-96918 clinical isolate expressing MBL assessed as imipenem MIC at 8 uM by checkerboard assay (reference value: 64 ug/ml)
Pseudomonas aeruginosa [17] = assay: Potentiation of aztreonam-induced antibacterial activity against carbapenem-resistant Pseudomonas aeruginosa 107092 clinical isolate assessed as fold reduction in aztreonam MIC at 8 uM in presence of beta-lactamase inhibitor, avi-bactam
Pseudomonas aeruginosa [18] = assay: Potentiation of ceftazidime-induced antibacterial activity against carbapenem-resistant Pseudomonas aeruginosa 259-96918 clinical isolate expressing metallo-beta-lactamase assessed as ceftazidime MIC at 8 uM by checkerboard assay (reference value: 512 ug/ml)
Pseudomonas aeruginosa [19] = assay: Potentiation of aztreonam-induced antibacterial activity against carbapenem-resistant Pseudomonas aeruginosa 108590 clinical isolate assessed as fold reduction in aztreonam MIC at 8 uM in presence of beta-lactamase inhibitor, avi-bactam
Pseudomonas aeruginosa [20] = assay: Potentiation of aztreonam-induced antibacterial activity against carbapenem-resistant Pseudomonas aeruginosa 108590 clinical isolate assessed as aztreonam MIC at 8 uM by checkerboard assay (reference value: 32 ug/ml)
Pseudomonas aeruginosa [21] = assay: Potentiation of aztreonam-induced antibacterial activity against carbapenem-resistant Pseudomonas aeruginosa 88949 clinical isolate assessed as fold reduction in aztreonam MIC at 8 uM in presence of beta-lactamase inhibitor, avi-bactam
Pseudomonas aeruginosa [22] = assay: Potentiation of aztreonam-induced antibacterial activity against carbapenem-resistant Pseudomonas aeruginosa 86052 clinical isolate assessed as fold reduction in aztreonam MIC at 8 uM in presence of beta-lactamase inhibitor, avi-bactam
Pseudomonas aeruginosa [23] = assay: Potentiation of ceftazidime-induced antibacterial activity against carbapenem-resistant Pseudomonas aeruginosa 100036 clinical isolate assessed as ceftazidime MIC at 8 uM by checkerboard assay (reference value: 8 ug/ml)
Pseudomonas aeruginosa [24] = assay: Potentiation of imipenem-induced antibacterial activity against carbapenem-resistant Pseudomonas aeruginosa 101885 clinical isolate assessed as imipenem MIC at 8 uM by checkerboard assay (reference value: 4 ug/ml)
Pseudomonas aeruginosa [25] = assay: Potentiation of imipenem-induced antibacterial activity against wild type Pseudomonas aeruginosa PAO1 assessed as fold reduction in imipenem MIC at 8 uM
Pseudomonas aeruginosa [26] = assay: Potentiation of aztreonam-induced antibacterial activity against carbapenem and colistin-resistant Pseudomonas aeruginosa 114228 clinical isolate assessed as aztreonam MIC at 8 uM by checkerboard assay (reference value: 32 ug/ml)
Pseudomonas aeruginosa [27] = assay: Potentiation of ceftazidime-induced antibacterial activity against carbapenem-resistant Pseudomonas aeruginosa 260-97103 clinical isolate assessed as ceftazidime MIC at 8 uM by checkerboard assay (reference value: 32 ug/ml)
Pseudomonas aeruginosa [28] = assay: Potentiation of aztreonam-induced antibacterial activity against carbapenem-resistant Pseudomonas aeruginosa PAO200 harboring mexAB-oprM efflux deficient mutant assessed as aztreonam MIC at 8 uM by checkerboard assay (reference value: 0.25 ug/ml)
Pseudomonas aeruginosa [29] = assay: Potentiation of aztreonam-induced antibacterial activity against carbapenem-resistant Pseudomonas aeruginosa PAO750 harboring mexAB-oprM/mexCD-oprJ/mexEF-oprN/mexJK/mexXY/opmH efflux deficient mutant assessed as aztreonam MIC at 8 uM by checkerboard assay (reference value: 0.5 ug/ml)
Pseudomonas aeruginosa [30] = assay: Potentiation of imipenem-induced antibacterial activity against carbapenem-resistant Pseudomonas aeruginosa PAO200 harboring mexAB-oprM efflux deficient mutant assessed as imipenem MIC at 8 uM by checkerboard assay (reference value: 4 ug/ml)
Pseudomonas aeruginosa [31] = assay: Potentiation of ceftazidime-induced antibacterial activity against carbapenem and colistin-resistant Pseudomonas aeruginosa 114228 clinical isolate assessed as ceftazidime MIC at 8 uM by checkerboard assay (reference value: 8 ug/ml)
Pseudomonas aeruginosa [32] = assay: Potentiation of imipenem-induced antibacterial activity against carbapenem-resistant Pseudomonas aeruginosa 260-97103 clinical isolate assessed as imipenem MIC at 8 uM by checkerboard assay (reference value: 16 ug/ml)

For `N=C(N)NC[C@H]1O[C@H](O[C@H]2[C@H](OCCCCCCCCCCCCN3CCN(c4cc5c(cc4F)c(=O)c(C(=O)O)cn5C4CC4)CC3)[C@@H](O[C@H]3O[C@H](CO)[C@@H](O)[C@H](NC(=N)N)[C@H]3O)[C@H](NC(=N)N)C[C@@H]2NC(=N)N)[C@H](NC(=N)N)C[C@@H]1O.O=C(O)C(F)(F)F.O=C(O)C(F)(F)F.O=C(O)C(F)(F)F.O=C(O)C(F)(F)F.O=C(O)C(F)(F)F.O=C(O)C(F)(F)F`, the MIC (Pseudomonas aeruginosa [1]) was 64 µg/mL, the MIC (Pseudomonas aeruginosa [2]) was 32 µg/mL and the MIC (Pseudomonas aeruginosa [3]) was 32 µg/mL. The MIC (Pseudomonas aeruginosa [4]) was 4 µg/mL, the MIC (Pseudomonas aeruginosa [5]) was 0.25 µg/mL and the “fold change (FC)” value (Pseudomonas aeruginosa [6]) was 2. For the same compound, the MIC (Pseudomonas aeruginosa [7]) was 8 µg/mL, the MIC (Pseudomonas aeruginosa [8]) was 16 µg/mL and the MIC (Pseudomonas aeruginosa [9]) was 4 µg/mL. For the same compound, the MIC (Pseudomonas aeruginosa [10]) was 32 µg/mL, the MIC (Pseudomonas aeruginosa [11]) was 1 µg/mL and the “fold change (FC)” value (Pseudomonas aeruginosa [12]) was 16. For the same compound, the “fold change (FC)” value (Pseudomonas aeruginosa [13]) was 16, the MIC (Pseudomonas aeruginosa [14]) was 0.5 µg/mL and the MIC (Pseudomonas aeruginosa [15]) was 1 µg/mL. For the same compound, the MIC (Pseudomonas aeruginosa [16]) was 64 µg/mL, the “fold change (FC)” value (Pseudomonas aeruginosa [17]) was 16 and the MIC (Pseudomonas aeruginosa [18]) was 512 µg/mL. The “fold change (FC)” value (Pseudomonas aeruginosa [19]) was 16, the MIC (Pseudomonas aeruginosa [20]) was 2 µg/mL and the “fold change (FC)” value (Pseudomonas aeruginosa [21]) was 16. For the same compound, the “fold change (FC)” value (Pseudomonas aeruginosa [22]) was 16, the MIC (Pseudomonas aeruginosa [23]) was 6 µg/mL and the MIC (Pseudomonas aeruginosa [24]) was 2 µg/mL. For the same compound, the “fold change (FC)” value (Pseudomonas aeruginosa [25]) was 2, the MIC (Pseudomonas aeruginosa [26]) was 8 µg/mL and the MIC (Pseudomonas aeruginosa [27]) was 16 µg/mL. For the same compound, the MIC (Pseudomonas aeruginosa [28]) was 0.06 µg/mL, the MIC (Pseudomonas aeruginosa [29]) was 0.06 µg/mL and the MIC (Pseudomonas aeruginosa [30]) was 2 µg/mL. The MIC (Pseudomonas aeruginosa [31]) was 2 µg/mL and the MIC (Pseudomonas aeruginosa [32]) was 8 µg/mL.

With `NC[C@H]1O[C@H](O[C@H]2[C@H](OCCCCc3cn(CCCCO[C@@H]4[C@@H](O)[C@H](N)C[C@H](N)[C@H]4O[C@H]4O[C@H](CN)[C@@H](O)C[C@H]4N)nn3)[C@@H](O)[C@H](N)C[C@@H]2N)[C@H](N)C[C@@H]1O.O=C(O)C(F)(F)F.O=C(O)C(F)(F)F.O=C(O)C(F)(F)F.O=C(O)C(F)(F)F.O=C(O)C(F)(F)F.O=C(O)C(F)(F)F.O=C(O)C(F)(F)F.O=C(O)C(F)(F)F` the MIC (Pseudomonas aeruginosa [1]) was 32 µg/mL, the MIC (Pseudomonas aeruginosa [2]) was 32 µg/mL and the MIC (Pseudomonas aeruginosa [3]) was 128 µg/mL. The MIC (Pseudomonas aeruginosa [4]) was 8 µg/mL, the MIC (Pseudomonas aeruginosa [5]) was 0.5 µg/mL and the “fold change (FC)” value (Pseudomonas aeruginosa [6]) was 2. The MIC (Pseudomonas aeruginosa [7]) was 16 µg/mL, the MIC (Pseudomonas aeruginosa [8]) was 128 µg/mL and the MIC (Pseudomonas aeruginosa [9]) was 4 µg/mL. For the same compound, the MIC (Pseudomonas aeruginosa [10]) was 32 µg/mL, the MIC (Pseudomonas aeruginosa [11]) was 2 µg/mL and the “fold change (FC)” value (Pseudomonas aeruginosa [12]) was 16. The “fold change (FC)” value (Pseudomonas aeruginosa [13]) was 16, the MIC (Pseudomonas aeruginosa [14]) was 1 µg/mL and the MIC (Pseudomonas aeruginosa [15]) was 4 µg/mL. The MIC (Pseudomonas aeruginosa [16]) was 64 µg/mL, the “fold change (FC)” value (Pseudomonas aeruginosa [17]) was 16 and the MIC (Pseudomonas aeruginosa [18]) was 128 µg/mL. The “fold change (FC)” value (Pseudomonas aeruginosa [19]) was 16, the MIC (Pseudomonas aeruginosa [20]) was 16 µg/mL and the “fold change (FC)” value (Pseudomonas aeruginosa [21]) was 16. For the same compound, the “fold change (FC)” value (Pseudomonas aeruginosa [22]) was 16, the MIC (Pseudomonas aeruginosa [23]) was 4 µg/mL and the MIC (Pseudomonas aeruginosa [24]) was 4 µg/mL. For the same compound, the “fold change (FC)” value (Pseudomonas aeruginosa [25]) was 2, the MIC (Pseudomonas aeruginosa [26]) was 16 µg/mL and the MIC (Pseudomonas aeruginosa [27]) was 16 µg/mL. The MIC (Pseudomonas aeruginosa [28]) was 0.06 µg/mL, the MIC (Pseudomonas aeruginosa [29]) was 0.25 µg/mL and the MIC (Pseudomonas aeruginosa [30]) was 1 µg/mL. The MIC (Pseudomonas aeruginosa [31]) was 1 µg/mL and the MIC (Pseudomonas aeruginosa [32]) was 16 µg/mL.

Work on `Cl.Cl.Cl.Cl.Cl.Cl.NC[C@H]1O[C@H](O[C@H]2[C@H](OCCCCCCCCCCCCN3CCN(c4cc5c(cc4F)c(=O)c(C(=O)O)cn5C4CC4)CC3)[C@@H](O[C@H]3O[C@H](CO)[C@@H](O)[C@H](N)[C@H]3O)[C@H](N)C[C@@H]2N)[C@H](N)C[C@@H]1O` yielded an MIC (Pseudomonas aeruginosa [1]) of 8 µg/mL, an MIC (Pseudomonas aeruginosa [2]) of 8 µg/mL and an MIC (Pseudomonas aeruginosa [3]) of 16 µg/mL. For the same compound, the MIC (Pseudomonas aeruginosa [4]) was 2 µg/mL, the MIC (Pseudomonas aeruginosa [5]) was 0.25 µg/mL and the “fold change (FC)” value (Pseudomonas aeruginosa [6]) was 2. It also gave an MIC (Pseudomonas aeruginosa [7]) of 4 µg/mL, an MIC (Pseudomonas aeruginosa [8]) of 2 µg/mL and an MIC (Pseudomonas aeruginosa [9]) of 2 µg/mL. For the same compound, the MIC (Pseudomonas aeruginosa [10]) was 16 µg/mL, the MIC (Pseudomonas aeruginosa [11]) was 0.5 µg/mL and the “fold change (FC)” value (Pseudomonas aeruginosa [12]) was 16. The “fold change (FC)” value (Pseudomonas aeruginosa [13]) was 16, the MIC (Pseudomonas aeruginosa [14]) was 0.25 µg/mL and the MIC (Pseudomonas aeruginosa [15]) was 2 µg/mL. The MIC (Pseudomonas aeruginosa [16]) was 16 µg/mL, the “fold change (FC)” value (Pseudomonas aeruginosa [17]) was 16 and the MIC (Pseudomonas aeruginosa [18]) was 64 µg/mL. For the same compound, the “fold change (FC)” value (Pseudomonas aeruginosa [19]) was 16, the MIC (Pseudomonas aeruginosa [20]) was 0.5 µg/mL and the “fold change (FC)” value (Pseudomonas aeruginosa [21]) was 16. The “fold change (FC)” value (Pseudomonas aeruginosa [22]) was 16, the MIC (Pseudomonas aeruginosa [23]) was 2 µg/mL and the MIC (Pseudomonas aeruginosa [24]) was 2 µg/mL. The “fold change (FC)” value (Pseudomonas aeruginosa [25]) was 2, the MIC (Pseudomonas aeruginosa [26]) was 2 µg/mL and the MIC (Pseudomonas aeruginosa [27]) was 4 µg/mL. For the same compound, the MIC (Pseudomonas aeruginosa [28]) was 0.03 µg/mL, the MIC (Pseudomonas aeruginosa [29]) was 0.06 µg/mL and the MIC (Pseudomonas aeruginosa [30]) was 1 µg/mL. For the same compound, the MIC (Pseudomonas aeruginosa [31]) was 0.5 µg/mL and the MIC (Pseudomonas aeruginosa [32]) was 2 µg/mL.
